A short description of the data set: Human HepG2 cell viability assay in 384 well format. It is filed as toxicity, cell-based. Also noted: dose 125 nL, time 70.5 hour; cytotoxicity at 70.5 h: concentration not given beside the values. As to conditions: HepG2 cells, read-out: Inhibition.

The structures appear in SMILES notation.

For the molecule `Cc1ccc(CN2Cc3cnn(C)c3C(COCC3CC3)C2)o1` (stereo not given), the cytotoxicity at 70.5 h amounted to 2.56%. With `Cc1noc([C@@H]2C[C@H]3OCC[C@H]3N(Cc3ccoc3)C2)n1`, the cytotoxicity at 70.5 h is -6.19%.

In the case of `CN(C)C(=O)COC1COC2(CCN(c3ncccn3)CC2)C1` (stereo not given), the cytotoxicity at 70.5 h was -7.32%. For `Cc1nc(CN2C[C@@H]3CN(C(=O)c4ccoc4C)C[C@@H]3C2=O)cs1`, the cytotoxicity at 70.5 h was -10%. Under `CCOCC1CN(C(=O)Cc2cccs2)Cc2ccnn2C1` (stereo not given) stands -9.44%. Under `Cc1nc(CN2C(=O)CC[C@@H]3[C@H]2CCN3C(=O)c2ccc[nH]2)cs1` stands -7.13%; under `CN(Cc1cccnc1)CC1CN(C(N)=O)Cc2nccn2C1` (stereo not given), -2.38%; under `CC(=O)N1CC2(CCNCC2)c2cc(C)ccc21`, 20.4%. Under `O=C(CC1CC1)NCc1cn2c(n1)CN(C(=O)C1CCOCC1)CC2` stands -4.63%; under `COCC(=O)N1Cc2nccn2CC(CN(C)Cc2cccnc2)C1` (stereo not given), -7.06%; under `COCc1cncc2c1CCN(C(=O)c1ccoc1C)C2`, -2.3%. As to `Cc1ccc2c(c1)C1(CCNCC1)CN2C(=O)C(C)C`, the cytotoxicity at 70.5 h is 18.3%. Under `CCCS(=O)(=O)N1C[C@H]2C[C@H](C(=O)N(C)C)[C@@H](C1)O2` stands -13.7%; under `COCCNC(=O)[C@@H]1CCO[C@@H]2CCN(c3ccc(C)nn3)C[C@@H]21`, -15.8%.

Regarding `Cc1ccc(N2C[C@H]3OCC[C@H]3[C@H](C(=O)NC3CCCC3)C2)nn1`, the cytotoxicity at 70.5 h was -12.6%. Under `O=C1[C@@H]2CCN(Cc3ccoc3)C[C@@H]2OCCN1c1cccnc1` stands -13.5%.

As for `Cc1ccc(N2C[C@H]3OCC[C@H]3[C@H](C(=O)NCc3ccco3)C2)nn1`, the cytotoxicity at 70.5 h was -7.31%. Turning to `COCCNC(=O)[C@@H]1CN(c2ncccn2)C[C@H]2OCC[C@H]21`, the cytotoxicity at 70.5 h was -2.54%. Under `CCCNC(=O)c1cc(-c2cnc(N3CCCC3)nc2)cn1C` stands 3.66%; under `CCC(=O)N1CCC2(COCc3cnc(N4CCOCC4)nc32)C1` (stereo not given), 1.55%. Under `COCC(=O)N1CCC2(COCc3cnc(N4CCOCC4)nc32)C1` (stereo not given) stands 6.48%; under `O=C(CC1CC1)N1CCC2(CC1)CN(c1ccsc1)C(=O)CO2`, -2.64%; under `CNc1ncc(CN(C)C(=O)c2cccc(CC3CCNCC3)c2)cn1`, 35%. Under `COC[C@@H]1CCCN1C(=O)CCc1c(C)nn(C)c1C` stands -2.05%. On to `CNC(=O)c1n[nH]c2c1C(c1cccc3nsnc13)CC(=O)N2` (stereo not given), for which the cytotoxicity at 70.5 h was -3.59%. In the case of `CCc1ncc(C(=O)N(CCOC)Cc2ccccc2F)cn1`, the cytotoxicity at 70.5 h was -2.26%. As for `Cc1nc(N2CCCC2C(=O)NC(C)(C)CO)nc2ccccc12` (stereo not given), the cytotoxicity at 70.5 h was -7.7%.

`Fc1ccc(CC2CCN(Cc3cscn3)CC2)cc1`: the cytotoxicity at 70.5 h was -14.2%. Under `O=C1NCCCc2[nH]c(Cc3cccc(Cl)c3)nc21` stands 0.226%; under `O=C(CCc1ccccc1F)N1CCCC(OCc2cccnc2)C1` (stereo not given), -9.56%.

Take `COC(=O)c1cccc(-c2c[nH]c(C)n2)c1`: the cytotoxicity at 70.5 h was -7.21%. `CSc1ncccc1C(=O)N(C)CCc1scnc1C`: the cytotoxicity at 70.5 h is -8.88%. Under `CC(C)c1nnc(N2C[C@@H]3CC[C@H](C2)N(Cc2ccccc2)C3)s1` stands -4.82%; under `COc1cc(N(C)Cc2noc(CC(C)C)n2)ncn1`, 20.1%.

Turning to `Cc1cc2cccc(C(=O)N3CCOC(CCN(C)C)C3)c2o1` (stereo not given), the cytotoxicity at 70.5 h is -17.3%. In the case of `CN1CCNC(=O)C1CC(=O)NCCc1cnn(-c2ccccc2)c1` (stereo not given), the cytotoxicity at 70.5 h is 19.9%. Regarding `CN(Cc1ccccc1CN1CCCC1)C(=O)c1c(O)cccc1O`, the cytotoxicity at 70.5 h was determined as 7.79%. `COCCN1CCN(C(=O)C(c2cccc(F)c2)N(C)C)CC1` (stereo not given): the cytotoxicity at 70.5 h amounted to 1.27%. Under `Cc1nn(C)c2nc(N(Cc3cnn(C)c3)C3CCCCC3)sc12` stands 7.12%; under `NCCO[C@H]1C[C@@H](O)C12CCN(Cc1c(F)cccc1F)CC2`, -7.05%; under `Cc1cnc(C)c(-c2cc(O)c3c(c2)CN(c2nccs2)CCO3)n1`, -5.12%.

With `Cc1cnc(NC(C)Cc2cnccn2)nc1N(C)C` (stereo not given), the cytotoxicity at 70.5 h is -4.28%. Under `COc1cccc(OCCn2c(C)c(C)oc2=O)c1` stands 0.585%. Under `O=C(c1ccoc1)N1CCc2ncnc(NCc3ccccn3)c2CC1` stands 25.5%; under `CN(Cc1ccc(C2CC(=O)Nc3n[nH]cc32)o1)S(C)(=O)=O` (stereo not given), 9.86%; under `CCc1cc(NCCCN(C)C2CCCC2)ncn1`, -11.3%. Regarding `NC(=O)CN1CCC(C(=O)NCc2ccc3nonc3c2)CC1`, the cytotoxicity at 70.5 h is -14.2%. For `Cc1ccc2[nH]c(C(=O)N3CCC4(CC3)C(=O)NCCN4C)nc2c1`, the cytotoxicity at 70.5 h was -6.83%. `O=C(O)c1cn(CC2CCCN(c3cnc4ccccc4n3)C2)nn1` (stereo not given): the cytotoxicity at 70.5 h is -3.54%. For `O=C(Nc1cnn(CC(=O)N2CCCCO2)c1)c1ccsc1`, the cytotoxicity at 70.5 h is -2.35%. In the case of `CC(C)c1noc(C2CCCN2C(=O)Cc2cn3ccsc3n2)n1` (stereo not given), the cytotoxicity at 70.5 h was -9.25%. Under `c1cnc(NCc2cncc3c2CCN(Cc2ccsc2)C3)nc1` stands -7.81%; under `c1cnc(NCc2cncc3c2CCN(Cc2ccoc2)C3)nc1`, -8.36%; under `Cc1nc(CN2CCc3ncnc(-c4ccccc4)c3CC2)cs1`, -9.56%. Under `CC(C)OCc1ncn2c1CN(Cc1nccs1)CCC2` stands -6.03%. In the case of `O=C1CO[C@@H]2CN(CC3CCOC3)C[C@H]2N1Cc1cccc(F)c1` (stereo not given in full), the cytotoxicity at 70.5 h is -6.08%. Consider `Cc1noc([C@H]2C[C@H]3OCC[C@H]3N(Cc3ccc(F)cc3)C2)n1`, for which the cytotoxicity at 70.5 h is -8.23%. For the molecule `Cc1noc([C@@H]2C[C@H]3OCC[C@H]3N(Cc3sccc3C)C2)n1`, the cytotoxicity at 70.5 h came to 4.03%. Under `CC(=O)NCC(=O)N1CCC2(CC1)NC(=O)CC2c1cccnc1` (stereo not given) stands -1.28%; under `Cc1nc(CN2C(=O)CC[C@@H]3[C@H]2CCN3C(=O)c2ccccn2)cs1`, -4.48%.

Turning to `O=C(CC1CC1)NCc1cn2c(n1)CN(Cc1nccs1)CC2`, the cytotoxicity at 70.5 h is -6.29%.

As for `Cc1ncnc2c1CCN(C(=O)c1ccncc1F)CC2`, the cytotoxicity at 70.5 h was -8.13%.

Take `Cn1cc(C2CC(=O)NC23CCN(C(=O)c2cccnc2)CC3)cn1` (stereo not given): the cytotoxicity at 70.5 h was -3.63%. Under `O=C(CC1CC1)NCc1cn2c(n1)CN(Cc1cccc(F)c1)CC2` stands -3.4%. Under `CCOc1ncnc2c1CCN(C(=O)c1ccncc1F)CC2` stands -3.16%. Turning to `Cc1cc(CN2C[C@@H]3COC[C@]3(CNC(=O)N3CCCC3)C2)no1`, the cytotoxicity at 70.5 h is 0.0997%.

In the case of `O=C1CC(c2ccccc2)C2(CCN(C(=O)c3ccncc3F)CC2)N1` (stereo not given), the cytotoxicity at 70.5 h was -5.44%. For the molecule `CCn1cc2c(n1)CN(Cc1ccc(F)cc1)CC2COCC1CC1` (stereo not given), the cytotoxicity at 70.5 h was -1.9%.

`O=C(c1cnccn1)N1C[C@@H]2CCN(c3cccnc3)C[C@@H]2C1`: the cytotoxicity at 70.5 h is -9.4%. In the case of `Cn1cccc1C(=O)N1C[C@@H]2CCN(c3cccnc3)C[C@@H]2C1`, the cytotoxicity at 70.5 h is -7.6%.

Regarding `COCCNC(=O)C1CN(Cc2csc(C)n2)Cc2ccnn2C1` (stereo not given), the cytotoxicity at 70.5 h was -8.82%. With `CCn1cc2c(n1)CN(Cc1cnn(C)c1)CC2COCC1CC1` (stereo not given), the cytotoxicity at 70.5 h was -11.6%. Under `CCS(=O)(=O)N1CC[C@H]2C(=O)N(Cc3cccnc3)CCO[C@H]2C1` stands -13.9%; under `CN(C)C(=O)[C@H]1C[C@@H]2CN(CCc3ccccc3)C[C@H]1O2`, -6.59%. Under `O=C1[C@@H]2CCN(Cc3ccoc3)C[C@@H]2OCCN1Cc1cccc(F)c1` stands -4.35%.

With `CN(C)C(=O)NC1COC2(CCN(Cc3ccc(Cl)c(F)c3)CC2)C1` (stereo not given), the cytotoxicity at 70.5 h was -8.77%.

Consider `CO[C@@H]1CCN(Cc2nccs2)C[C@@H]1Cc1cccc(C)c1`, for which the cytotoxicity at 70.5 h was -3.84%. Under `c1ccc(C[C@H]2CN(Cc3nccs3)CC[C@@H]2OCC2CC2)cc1` stands -2.59%; under `O=C(c1ccco1)N1C[C@@H]2CCN(c3cccnc3)C[C@@H]2C1`, -11.6%.

As for `c1cnc(N2CCO[C@H]3CN(Cc4csnn4)C[C@H]32)nc1`, the cytotoxicity at 70.5 h is -11.7%.

With `Cc1ccc(CN2CCn3c(C(=O)N(C)C)cnc3C2)cc1`, the cytotoxicity at 70.5 h came to 2.94%. Under `COc1ccc(CN2CCn3c(C(=O)N(C)C)cnc3C2)cc1` stands -3.13%; under `CCOCCN1Cc2cnn(C)c2C(COCC)C1` (stereo not given), 8.6%; under `O=C(CC1CC1)NCc1cn2c(n1)CN(Cc1cccnc1)CC2`, -8.95%. Regarding `c1cnn(Cc2cnc3n2CCN(CC2CCCCC2)C3)c1`, the cytotoxicity at 70.5 h is -6.48%.

Take `c1ccc(CN2CCc3ncnc(-c4cccnc4)c3CC2)nc1`: the cytotoxicity at 70.5 h was -7.48%. Under `c1cnc(N2CCCC3(CCN(CC4CC4)C3)C2)nc1` (stereo not given) stands -6.19%; under `CCS(=O)(=O)NC[C@]12COC[C@H]1CN(Cc1ccccn1)C2`, -3.72%; under `Cc1cccc(CN2C(=O)CC[C@@H]3[C@H]2CCN3Cc2ccc(F)cc2)n1`, -4.94%. Under `Cc1noc(C)c1CN1Cc2ccnn2CC(C(=O)NCC2CC2)C1` (stereo not given) stands -6.51%; under `O=C(O)c1cc2c(nc1-c1ccoc1)CCN(Cc1ccco1)CC2`, -14.2%.

Take `COCCN1CCc2cc(C(=O)O)c(-c3ccoc3)nc2CC1`: the cytotoxicity at 70.5 h was -12.3%. `CCOCCN1Cc2ncn(C)c2C(COCC2CCOCC2)C1` (stereo not given): the cytotoxicity at 70.5 h is -7.05%. Under `CN(C)C(=O)c1cnc2n1CCN(Cc1cccnc1)C2` stands 4.75%; under `Cc1ccc(N2CCO[C@H]3CN(Cc4ccccn4)C[C@H]32)nn1`, -9.99%.

For the origin of these results see ChEMBL document CHEMBL3507680, “University of Dundee, Gates Library screen for HepG2 cell viability”.
